Assay results as given in patent US20240018123A1, “COMPOUND FOR INHIBITING OR DISINTEGRATING ANDROGEN RECEPTOR, AND PHARMACEUTICAL USE THEREOF” (KOREA RESEARCH INSTITUTE OF CHEMICAL TECHNOLOGY, priority 2020, published 2024).

The molecules below were run against T1, Androgen receptor (AR) (Homo sapiens, UniProt P10275, T878A) (assay: Assessment of AR proteolytic activity (Western blotting of LNCap cell lysates)). Conditions: 24 hours of treatment, Western blotting quantified with Image J.
T1 construct: 5.5×10^5 LNCap cells were injected into each well of a 6-well plate; endogenous in cells; host or cells: LNCaP
T1 sequence (P10275 1-920 T878A): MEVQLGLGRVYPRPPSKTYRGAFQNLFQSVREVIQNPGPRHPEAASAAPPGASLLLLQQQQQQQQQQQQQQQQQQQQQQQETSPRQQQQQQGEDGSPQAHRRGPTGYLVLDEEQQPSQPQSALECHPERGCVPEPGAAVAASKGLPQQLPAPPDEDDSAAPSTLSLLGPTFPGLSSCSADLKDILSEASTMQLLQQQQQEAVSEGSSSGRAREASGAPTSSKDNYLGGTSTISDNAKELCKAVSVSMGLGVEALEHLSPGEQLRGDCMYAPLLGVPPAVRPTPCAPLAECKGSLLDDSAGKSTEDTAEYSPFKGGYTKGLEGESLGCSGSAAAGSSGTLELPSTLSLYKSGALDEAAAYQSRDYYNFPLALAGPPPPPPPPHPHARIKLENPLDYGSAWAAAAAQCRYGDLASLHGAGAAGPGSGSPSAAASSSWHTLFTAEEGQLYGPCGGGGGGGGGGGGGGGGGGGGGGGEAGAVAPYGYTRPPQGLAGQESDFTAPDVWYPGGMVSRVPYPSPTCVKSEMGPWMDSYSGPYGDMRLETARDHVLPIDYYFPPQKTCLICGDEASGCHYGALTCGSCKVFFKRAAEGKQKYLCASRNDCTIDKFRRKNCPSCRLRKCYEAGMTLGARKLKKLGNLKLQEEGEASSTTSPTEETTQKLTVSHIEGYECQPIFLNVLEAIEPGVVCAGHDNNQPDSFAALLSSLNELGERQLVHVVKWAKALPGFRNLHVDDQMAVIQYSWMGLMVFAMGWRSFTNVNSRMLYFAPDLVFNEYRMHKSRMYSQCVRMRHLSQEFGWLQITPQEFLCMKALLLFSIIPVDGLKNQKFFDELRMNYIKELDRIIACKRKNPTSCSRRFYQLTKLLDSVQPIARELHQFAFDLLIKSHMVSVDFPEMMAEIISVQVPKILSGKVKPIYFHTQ
Assay type: cell-based
Method: Assessment of AR Proteolytic Activity
Androgen receptor (AR) proteolytic activity of the compound according to the present invention was evaluated as follows: Specifically, 5.5×10^5 LNCap cells were injected into each well of a 6-well plate. […] After 24 hours of treatment, cells were collected and lysed using RIPA Lysis buffer (50 mM Tris-HCl, pH7.5, 150 mM NaCl, 1% Triton X-100, 2 mM EDTA, 0.1% SDS, 0.5% sodium deoxycholate and protease inhibitor cocktail) to make cell lysates. Western blotting was performed, and the results were quantified using Image J program.

| Structure (SMILES) | Degradation (1 μM treated in LNCaP, % AR remaining) |
| --- | --- |
| CC1(C)C(NC(=O)c2ccc(N3CC[C@H](CN4CCN(C5CCN(c6ccc7c(=O)n(C8CCC(=O)NC8=O)nnc7c6)CC5)CC4)C3)nc2)C(C)(C)C1Oc1ccc(C#N)c(Cl)c1 (stereo partly drawn) [Example 191, N-((1r,3R)-3-(3-chloro-4-cyanophenoxy)-2,2,4,4-tetramethylcyclobutyl)-6-((3R)-3-((4-(1-(3-(2,6-dioxopiperidin-3-yl)-4-oxo-3,4-dihydrobenzo[d][1,2,3]triazin-7-yl)piperidin-4-yl)piperazin-1-yl)methyl)pyrrolidin-1-yl)nicotinamide] | 33% |
| CC1(C)C(NC(=O)c2ccc(C#CCN3CCC4(CC3)CN(c3ccc5nnn(C6CCC(=O)NC6=O)c(=O)c5c3)C4)nc2)C(C)(C)C1Oc1ccc(C#N)c(Cl)c1 (centres unmarked) [Example 182, N-((1r,3r)-3-(3-chloro-4-cyanophenoxy)-2,2,4,4-tetramethylcyclobutyl)-6-(3-(2-(3-(2,6-dioxopiperidin-3-yl)-4-oxo-3,4-dihydrobenzo[d][1,2,3]triazin-6-yl)-2,7-diazaspiro[3.5]nonan-7-yl)prop-1-yn-1-yl)nicotinamide] | 16% |
| CC1(C)C(NC(=O)c2ccc(N3CCC4(CC3)CN(CC3CCN(c5ccc6nnn(C7CCC(=O)NC7=O)c(=O)c6c5)CC3)C4)nc2)C(C)(C)C1Oc1ccc(C#N)c(Cl)c1 (centres unmarked) [Example 174, N-((1r,3r)-3-(3-chloro-4-cyanophenoxy)-2,2,4,4-tetramethylcyclobutyl)-6-(2-((1-(3-(2,6-dioxopiperidin-3-yl)-4-oxo-3,4-dihydrobenzo[d][1,2,3]triazin-6-yl)piperidin-4-yl)methyl)-2,7-diazaspiro[3.5]nonan-7-yl)nicotinamide] | 15% |
| CC1(C)C(NC(=O)c2ccc(C#CC3CCN(CC4CN(c5ccc6c(=O)n(C7CCC(=O)NC7=O)nnc6c5)C4)CC3)nc2)C(C)(C)C1Oc1ccc(C#N)c(Cl)c1 (centres unmarked) [Example 183, N-((1r,3r)-3-(3-chloro-4-cyanophenoxy)-2,2,4,4-tetramethylcyclobutyl)-6-((1-((1-(3-(2,6-dioxopiperidin-3-yl)-4-oxo-3,4-dihydrobenzo[d][1,2,3]triazin-7-yl)azetidin-3-yl)methyl)piperidin-4-yl)ethynyl)nicotinamide] | 7.5% |
| CC1(C)C(NC(=O)c2ccc(C#CCN3CCN(c4ccc5nnn(C6CCC(=O)NC6=O)c(=O)c5c4)CC3)nc2)C(C)(C)C1Oc1ccc(C#N)c(Cl)c1 (centres unmarked) [Example 178, N-((1r,3r)-3-(3-chloro-4-cyanophenoxy)-2,2,4,4-tetramethylcyclobutyl)-6-(3-(4-(3-(2,6-dioxopiperidin-3-yl)-4-oxo-3,4-dihydrobenzo[d][1,2,3]triazin-6-yl)piperazin-1-yl)prop-1-yn-1-yl)nicotinamide] | 23% |
| CC1(C)[C@H](NC(=O)c2ccc(N3CCC(CN4CCC5(CC4)CN(c4ccc6nnn(C7CCC(=O)NC7=O)c(=O)c6c4)C5)CC3)nc2)C(C)(C)[C@H]1Oc1ccc(C#N)c(Cl)c1 (some centres unmarked) [Example 172, N-((1r,3r)-3-(3-chloro-4-cyanophenoxy)-2,2,4,4-tetramethylcyclobutyl)-6-(4-((2-(3-(2,6-dioxopiperidin-3-yl)-4-oxo-3,4-dihydrobenzo[d][1,2,3]triazin-6-yl)-2,7-diazaspiro[3.5]nonan-7-yl)methyl)piperidin-1-yl)nicotinamide] | 7% |
| CC1(C)C(NC(=O)c2ccc(N3CCC(CN4CC5(CCN(c6ccc7c(=O)n(C8CCC(=O)NC8=O)nnc7c6)CC5)C4)CC3)nc2)C(C)(C)C1Oc1ccc(C#N)c(Cl)c1 (centres unmarked) [Example 169, N-((1r,3r)-3-(3-chloro-4-cyanophenoxy)-2,2,4,4-tetramethylcyclobutyl)-6-(4-((7-(3-(2,6-dioxopiperidin-3-yl)-4-oxo-3,4-dihydrobenzo[d][1,2,3]triazin-7-yl)-2,7-diazaspiro[3.5]nonan-2-yl)methyl)piperidin-1-yl)nicotinamide] | 16% |
| CC1(C)C(NC(=O)c2ccc(C#CC3CCN(CC4CN(c5ccc6nnn(C7CCC(=O)NC7=O)c(=O)c6c5)C4)CC3)nc2)C(C)(C)C1Oc1ccc(C#N)c(Cl)c1 (centres unmarked) [Example 184, N-((1r,3r)-3-(3-chloro-4-cyanophenoxy)-2,2,4,4-tetramethylcyclobutyl)-6-((1-((1-(3-(2,6-dioxopiperidin-3-yl)-4-oxo-3,4-dihydrobenzo[d][1,2,3]triazin-6-yl)azetidin-3-yl)methyl)piperidin-4-yl)ethynyl)nicotinamide] | 11% |
| CC1(C)C(NC(=O)c2ccc(N3CCC(CN4CCN(C5CCN(c6ccc7nnn(C8CCC(=O)NC8=O)c(=O)c7c6)CC5)CC4)CC3)nc2)C(C)(C)C1Oc1ccc(C#N)c(Cl)c1 (centres unmarked) [Example 194, N-((1r,3r)-3-(3-chloro-4-cyanophenoxy)-2,2,4,4-tetramethylcyclobutyl)-6-(4-((4-(1-(3-(2,6-dioxopiperidin-3-yl)-4-oxo-3,4-dihydrobenzo[d][1,2,3]triazin-6-yl)piperidin-4-yl)piperazin-1-yl)methyl)piperidin-1-yl)nicotinamide] | 9% |
| N#Cc1ccc(O[C@H]2CC[C@@H](NC(=O)c3ccc(N4CCN(CCCOc5ccc6nnn(C7CCC(=O)NC7=O)c(=O)c6c5)CC4)nc3)CC2)cc1Cl (some centres unmarked) [Example 161, N-((1r,4r)-4-(3-chloro-4-cyanophenoxy)cyclohexyl)-6-(4-(3-((3-(2,6-dioxopiperidin-3-yl)-4-oxo-3,4-dihydrobenzo[d][1,2,3]triazin-6-yl)oxy)propyl)piperazin-1-yl)nicotinamide] | 36% |

These molecules were tested on VCaP cells (assay: Cytotoxicity assessment (Cell-titer-glo cell viability), VCaP). Conditions: read-out: VCaP (CC50); VCaP cells, 6 days of treatment, Cell-titer-glo, vs DMSO.
Method: In order to evaluate the androgen receptor (AR) cytotoxicity of the compounds according to the present invention, the following experiment was conducted. Specifically, 1.5×10^3 (LNCaP) or 4×10^3 (VCaP, 22RV1), respectively, of LNCaP, VCaP, and 22RV1 cells were injected into each well of a 96-well plate. The next day, each well was treated with the compound at a final concentration of 3 nM, 10 nM, 30 nM, 100 nM, 300 nM, 1 μM, 3 μM, and 10 μM. […] After 6 days of treatment, Cell-titer-glo (promega) was treated and reacted for 10 minutes, and cell viability was measured with a multimode plate reader (PerkinElmer, Inc.), and the change was quantified compared to when DMSO was treated.

| Structure (SMILES) | CC50 |
| --- | --- |
| CC1(C)[C@H](NC(=O)c2ccc(N3CC4CN(CC5CCN(C(=O)C6CN(c7ccc8nnn(C9CCC(=O)NC9=O)c(=O)c8c7)C6)CC5)CC4C3)cc2)C(C)(C)[C@H]1Oc1ccc(C#N)c(Cl)c1 (some centres unmarked) [Example 140, N-((1r,3r)-3-(3-chloro-4-cyanophenoxy)-2,2,4,4-tetramethylcyclobutyl)-4-(5-((1-(1-(3-(2,6-dioxopiperidin-3-yl)-4-oxo-3,4-dihydrobenzo[d][1,2,3]triazin-6-yl)azetidine-3-carbonyl)piperidin-4-yl)methyl)hexahydropyrrolo[3,4-c]pyrrol-2(1H)-yl)benzamide] | 0.03 µM |
| CC1(C)[C@H](NC(=O)c2ccc(N3CCN(CCCc4cn(-c5ccc6nnn(C7CCC(=O)NC7=O)c(=O)c6c5)nn4)CC3)cc2)C(C)(C)[C@H]1Oc1ccc(C#N)c(Cl)c1 (some centres unmarked) [Example 134, N-((1r,3r)-3-(3-chloro-4-cyanophenoxy)-2,2,4,4-tetramethylcyclobutyl)-4-(4-(3-(1-(3-(2,6-dioxopiperidin-3-yl)-4-oxo-3,4-dihydrobenzo[d][1,2,3]triazin-6-yl)-1H-1,2,3-triazol-4-yl)propyl)piperazin-1-yl)benzamide] | 0.0645 µM |
| CC1(C)C(NC(=O)c2ccc(-n3cc(CCOCCOCCNC(=O)C4CCN(c5ccc6nnn(C7CCC(=O)NC7=O)c(=O)c6c5)CC4)nn3)cc2)C(C)(C)C1Oc1ccc(C#N)c(Cl)c1 (centres unmarked) [Example 158, N-(2-(2-(2-(1-(4-(((1r,3r)-3-(3-chloro-4-cyanophenoxy)-2,2,4,4-tetramethylcyclobutyl)carbamoyl)phenyl)-1H-1,2,3-triazol-4-yl)ethoxy)ethoxy)ethyl)-1-(3-(2,6-dioxopiperidin-3-yl)-4-oxo-3,4-dihydrobenzo[d][1,2,3]triazin-6-yl)piperidine-4-carboxamide] | 0.0387 µM |
| CC1(C)C(NC(=O)c2ccc(N3CC4CN(C(=O)CNc5ccc6nnn(C7CCC(=O)NC7=O)c(=O)c6c5)CC4C3)cc2)C(C)(C)C1Oc1ccc(C#N)c(Cl)c1 (centres unmarked) [Example 136, N-((1r,3r)-3-(3-chloro-4-cyanophenoxy)-2,2,4,4-tetramethylcyclobutyl)-4-(5-((3-(2,6-dioxopiperidin-3-yl)-4-oxo-3,4-dihydrobenzo[d][1,2,3]triazin-6-yl)glycyl)hexahydropyrrolo[3,4-c]pyrrol-2(1H)-yl)benzamide] | 0.0677 µM |
